Measured values: patent US11254667B2 (priority 2016, dated 2022)
≈ marks a conversion by molar mass, not a printed value. Where two headings read alike, the source gives them in different places.

How the values were obtained:
physchem = conditions: pH 7.4, aqueous buffer, kinetic from dmso stock
SRPK1 = SRPK1 (Homo sapiens (Human), UniProt Q96SB4); test: biochemical
in vivo = conditions: NRG/NRGS, mouse, ip, 30 mg/kg
PDGFRβ = PDGFRβ (Homo sapiens (Human), UniProt P09619); test: biochemical; conditions: 10 μM ATP
PDGFRβ, sequence (P09619 33-1106 limits assumed): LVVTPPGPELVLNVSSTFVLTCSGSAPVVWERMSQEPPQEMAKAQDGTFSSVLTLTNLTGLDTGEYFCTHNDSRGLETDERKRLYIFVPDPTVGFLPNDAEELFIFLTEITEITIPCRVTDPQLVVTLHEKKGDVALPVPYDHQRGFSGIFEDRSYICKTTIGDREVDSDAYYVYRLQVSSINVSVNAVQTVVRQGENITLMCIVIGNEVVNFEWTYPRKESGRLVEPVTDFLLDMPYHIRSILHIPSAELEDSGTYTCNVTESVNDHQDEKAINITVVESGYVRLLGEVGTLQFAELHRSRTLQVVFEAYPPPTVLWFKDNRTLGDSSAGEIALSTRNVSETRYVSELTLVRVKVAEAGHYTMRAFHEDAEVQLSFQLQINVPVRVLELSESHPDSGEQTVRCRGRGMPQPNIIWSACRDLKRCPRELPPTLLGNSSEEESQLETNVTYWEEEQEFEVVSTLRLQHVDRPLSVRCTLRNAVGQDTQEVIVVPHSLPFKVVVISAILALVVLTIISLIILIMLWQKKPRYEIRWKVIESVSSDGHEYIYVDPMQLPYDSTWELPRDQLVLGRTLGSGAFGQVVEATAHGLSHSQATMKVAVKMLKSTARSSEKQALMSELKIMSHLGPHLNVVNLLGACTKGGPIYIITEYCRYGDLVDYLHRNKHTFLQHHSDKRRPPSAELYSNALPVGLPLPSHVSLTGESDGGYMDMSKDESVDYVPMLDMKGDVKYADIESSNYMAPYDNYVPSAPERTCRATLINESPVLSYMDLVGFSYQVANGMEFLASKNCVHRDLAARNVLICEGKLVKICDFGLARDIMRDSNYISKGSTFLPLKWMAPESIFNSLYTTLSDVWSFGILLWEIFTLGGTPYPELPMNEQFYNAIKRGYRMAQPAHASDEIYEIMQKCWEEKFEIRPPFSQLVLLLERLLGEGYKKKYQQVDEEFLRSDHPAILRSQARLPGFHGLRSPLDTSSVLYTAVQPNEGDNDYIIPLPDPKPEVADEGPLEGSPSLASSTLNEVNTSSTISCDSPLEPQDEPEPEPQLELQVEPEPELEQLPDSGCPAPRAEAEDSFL

RET = RET (Homo sapiens (Human), UniProt P07949); test: biochemical; conditions: 10 μM ATP
RET, sequence (P07949 29-1114 limits assumed): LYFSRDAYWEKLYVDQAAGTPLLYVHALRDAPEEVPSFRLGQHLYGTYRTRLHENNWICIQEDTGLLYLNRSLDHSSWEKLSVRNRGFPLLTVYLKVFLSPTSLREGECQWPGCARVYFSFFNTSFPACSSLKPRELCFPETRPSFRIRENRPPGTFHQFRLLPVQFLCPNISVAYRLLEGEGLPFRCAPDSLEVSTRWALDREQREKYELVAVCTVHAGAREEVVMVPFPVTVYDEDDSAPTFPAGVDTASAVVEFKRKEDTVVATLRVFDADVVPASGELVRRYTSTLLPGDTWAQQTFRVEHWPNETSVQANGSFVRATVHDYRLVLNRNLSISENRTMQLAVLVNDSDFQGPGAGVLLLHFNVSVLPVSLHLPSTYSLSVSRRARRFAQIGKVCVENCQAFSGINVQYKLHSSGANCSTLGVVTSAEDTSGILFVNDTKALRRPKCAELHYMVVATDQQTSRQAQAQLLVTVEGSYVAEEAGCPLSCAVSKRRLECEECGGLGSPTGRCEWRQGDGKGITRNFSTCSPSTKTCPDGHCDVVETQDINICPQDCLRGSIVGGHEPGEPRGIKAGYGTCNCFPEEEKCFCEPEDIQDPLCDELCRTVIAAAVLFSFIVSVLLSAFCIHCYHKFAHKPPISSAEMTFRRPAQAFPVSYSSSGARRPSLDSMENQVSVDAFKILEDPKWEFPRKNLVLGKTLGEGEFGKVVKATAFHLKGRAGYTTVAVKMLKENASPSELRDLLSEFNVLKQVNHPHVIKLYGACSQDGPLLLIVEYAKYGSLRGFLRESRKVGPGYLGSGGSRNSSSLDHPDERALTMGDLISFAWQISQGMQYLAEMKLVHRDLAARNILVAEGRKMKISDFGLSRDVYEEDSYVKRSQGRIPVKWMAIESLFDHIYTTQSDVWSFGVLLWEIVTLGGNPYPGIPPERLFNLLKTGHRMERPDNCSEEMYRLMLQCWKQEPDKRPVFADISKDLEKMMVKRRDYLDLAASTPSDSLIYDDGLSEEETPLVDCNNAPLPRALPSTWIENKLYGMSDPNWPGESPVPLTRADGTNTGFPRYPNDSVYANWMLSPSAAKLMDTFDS

BLK = BLK (Homo sapiens (Human), UniProt P51451); test: biochemical; conditions: 10 μM ATP
MA9-NRas cells = test: NRAS IC50 (MA9-NRas cells); type: cell-based; conditions: Homo sapiens, read-out: NRAS IC50
Phospho (P)-STAT5 = test: P-STAT5 AlphaLISA assay in MV4;11 cells; type: cell-based; conditions: Homo sapiens, read-out: IC50 of STAT5 phosphorylation
IRAK1 [1] = molecular target: T1, IRAK1 (Homo sapiens (Human), UniProt P51617); test: biochemical
CDK7/cyclin H = CDK7/cyclin H (Homo sapiens (Human), UniProt P50613); test: biochemical
LCK = LCK (Homo sapiens (Human), UniProt P06239); test: biochemical; conditions: 10-dose IC50 mode, 10 μM ATP
IRAK1 [2] = molecular target: T1, IRAK1; test: Kd kinase binding assay IRAK1
FLT3 = FLT3 (Homo sapiens (Human), UniProt P36888); test: biochemical
P-IRAK4 = test: Immunoblot of compensatory P-IRAK4 in FLT3-ITD AML cells; type: cell-based, human; conditions: 50 nM
IRAK4 = IRAK4 (Homo sapiens (Human), UniProt Q9NWZ3); test: biochemical
[3] = molecular target: Receptor-type tyrosine-protein kinase FLT3 (Homo sapiens, UniProt P36888, ITD); test: biochemical
FLT3 phosphorylation = test: Immunoblot of P-FLT3 in MV4;11 cells; type: cell-based, human; conditions: 50 nM, 24 hours
FLT3 (D835Y) = FLT3 (D835Y) (Homo sapiens (Human), UniProt P36888, D835Y); test: biochemical
[4] = test system: normal cord blood CD34+ cells; test: Colony formation of normal cord blood CD34+ cells; conditions: 1 μM, 10 days
MDSL cells = test: CellTiter-Glo growth of MDSL cells; type: cell-based, human; conditions: 72 hours, cell-titer glow
IRAK4 phosphorylation = test: Immunoblot of P-IRAK4 in MDSL cells; type: cell-based, human; conditions: 24 hours
[5] = NRG/NRGS, mouse, in vivo, ip, 30 mg/kg
[6] = PAMPA
[7] = pH 7.4
[8] = MV4;11 cells, 5 hours, AlphaLISA

**Q.** Which Stability (rat) does the source give for `Clc1ccc2ncc(-c3cccc(NC4CCNCC4)n3)n2c1` [Compound I-2, 6-(6-chloroimidazo[1,2-a]pyridin-3-yl)-N-(piperidin-4-yl)pyridin-2-amine] here?
**A.** >30.0 min

**Q.** And the solubility (physchem)?
**A.** > 48 µg/mL

**Q.** What about the solubility kinetic (physchem) of the same compound?
**A.** > 48 µM

**Q.** What about the IC50 (SRPK1) of the same compound?
**A.** > 10 µM

**Q.** What about the AUC(0-inf) (in vivo) of the same compound?
**A.** 4630 ng·h/mL

**Q.** And the Cmax (in vivo)?
**A.** 1710 ng/mL

**Q.** What about the Tmax (in vivo) of the same compound?
**A.** 30 min

**Q.** What about the half-life (in vivo) of the same compound?
**A.** 198 min

**Q.** What about the IC50 (PDGFRβ; IC50 PDGFRb, 10-dose IC50 mode) of the same compound?
**A.** 0.00357 µM

**Q.** And the IC50 (PDGFRβ; IC50 PDGFRβ)?
**A.** 0.00419 µM

**Q.** And the IC50 (RET; IC50 RET)?
**A.** 0.0006 µM

**Q.** And the IC50 (RET; IC50 RET, 10-dose IC50 mode)?
**A.** 1.28 µM

**Q.** Which results are given for `Clc1ccc2ncc(-c3cccc(NC4CNC4)n3)n2c1` [Compound I-15, N-(azetidin-3-yl)-6-(6-chloroimidazo[1,2-a]pyridin-3-yl)pyridin-2-amine]?
**A.** Stability: 13 min; IC50 (MA9-NRas cells): 16.6 µM; solubility (physchem): > 44 µg/mL; IC50 (Phospho (P)-STAT5; [8]): 0.0017 µM

**Q.** What does the source list for `Clc1ccc2ncc(-c3cccc(NC4CCCNC4)n3)n2c1` (stereo not drawn) [Compound I-17, 6-(6-chloroimidazo[1,2-a]pyridin-3-yl)-N-(piperidin-3-yl)pyridin-2-amine]?
**A.** IC50 (IRAK1 [1]; read-out: IC50 IRAK1): 1.48 µM; IC50 (CDK7/cyclin H): 0.588 µM; Stability (rat): >30.0 min; solubility (physchem): > 48 µg/mL; IC50 (LCK): 0.167 µM; IC50 (SRPK1): 7.67 µM; IC50 (PDGFRβ; IC50 PDGFRb, 10-dose IC50 mode): 0.067 µM; IC50 (RET; IC50 RET, 10-dose IC50 mode): 0.0105 µM; IC50 (BLK; IC50 BLK, 10-dose IC50 mode): 0.0407 µM; Kd (IRAK1 [2]): 0.15 µM

**Q.** What does the source list for `COc1cc2ncc(-c3cccc(NC4CCNC4)n3)n2cc1-c1cn[nH]c1` (stereo not drawn) [Compound I-20, 6-(7-methoxy-6-(1H-pyrazol-4-yl)imidazo[1,2-a]pyridin-3-yl)-N-(pyrrolidin-3-yl)pyridin-2-amine]?
**A.** IC50 (IRAK1 [1]; IC50 IRAK1, 10-dose IC50 mode, 10 μM ATP): 0.00534 µM; IC50 (FLT3): < 0.000508 µM; IC50 (CDK7/cyclin H): 0.116 µM; Stability (rat): 11.6 min; compensatory phosphorylation of IRAK4 (immunoblot) (P-IRAK4): did not result in compensatory phosphorylation of IRAK4; IC50 (MA9-NRas cells): 33.2 µM; IC50 (IRAK4): < 0.000508 µM; solubility (physchem): 4.5 µg/mL (≈ 12 µM); IC50 (LCK): < 0.000508 µM; IC50 (SRPK1): > 10 µM; IC50 [3]: < 0.000508 µM; FLT3 phosphorylation (immunoblot) (FLT3 phosphorylation): inhibited FLT3 phosphorylation comparably to AC220; IC50 (PDGFRβ; IC50 PDGFRb, 10-dose IC50 mode): 0.00125 µM; IC50 (RET; IC50 RET, 10-dose IC50 mode): < 0.000508 µM; IC50 (BLK; IC50 BLK, 10-dose IC50 mode): < 0.000508 µM; IC50 (FLT3 (D835Y)): < 0.000508 µM; IC50 (Phospho (P)-STAT5; MV4-11, 5 h): 0.0036 µM

**Q.** Which results are given for `COc1cc2ncc(-c3cccc(NC4CCNC4)n3)n2cc1-c1cnn(C)c1` (stereo not drawn) [Compound I-24, 6-(7-methoxy-6-(1-methyl-1H-pyrazol-4-yl)imidazo[1,2-a]pyridin-3-yl)-N-(pyrrolidin-3-yl)pyridin-2-amine]?
**A.** colony formation of normal CD34+ cells [4]: inhibited colony formation; MDSL growth inhibition compared to IRAK-Inh (MDSL cells): increased ability to inhibit MDSL growth; IRAK4 phosphorylation (immunoblot) (IRAK4 phosphorylation): effectively inhibited pIRAK4; FLT3 phosphorylation (immunoblot) (FLT3 phosphorylation): inhibited FLT3 phosphorylation comparably to AC220; AUC(0-inf) (in vivo): 6800 ng·h/mL; Cmax (in vivo): 3570 ng/mL; Tmax (in vivo): 4.98 min; Kd (IRAK1 [2]): 0.0029 µM; AUCinf. [5]: 6,800 hr*ng/mL

**Q.** What does the source list for `c1cc(N[C@@H]2CCNC2)nc(-c2cnc3ccc(-c4cn[nH]c4)cn23)c1` [Compound I-43]?
**A.** Stability: 5.7 min; solubility (physchem): 40.1 µg/mL (≈ 116 µM); IC50 (Phospho (P)-STAT5; [8]): 0.0066 µM

**Q.** For `Fc1cc(F)c(-c2cnc3ccc(Cl)cn23)nc1NC1CNC1` [Compound I-56, N-(azetidin-3-yl)-6-(6-chloroimidazo[1,2-a]pyridin-3-yl)-3,5-difluoropyridin-2-amine], which Permeability [6] is on record?
**A.** 1164.1 ×10⁻⁶ cm/s

**Q.** What about the solubility [7] of the same compound?
**A.** >50.0 µg/mL

**Q.** With `CC1(COc2ccc3c(c2)ncn3-c2ccc3cccc(N4CCC(N)CC4)c3n2)COC1` [Crenolinib, reference compound] as the compound, how does the IC50 (SRPK1; 10-dose IC50 mode, 10 μM ATP, read-out: IC50 SRPK1) read?
**A.** 21.7 µM

**Q.** And the IC50 (RET; 10-dose IC50 mode, read-out: IC50 RET)?
**A.** 0.0138 µM

**Q.** And the IC50 (BLK; 10-dose IC50 mode, read-out: IC50 BLK)?
**A.** 0.0207 µM

**Q.** With `CC(C)(C)c1cc(NC(=O)Nc2ccc(-c3cn4c(n3)sc3cc(OCCN5CCOCC5)ccc34)cc2)no1` [quizartinib, reference compound] as the compound, how does the IC50 (Phospho (P)-STAT5; MV4-11, 5 h) read?
**A.** 0.0117 µM
